“Also recorded” adds a separate entry of the source. Where two headings read alike, the source gives them in different places.
Key:
ERK [1] = assay: ERK activation in primary rat neostriatal neuron cultures; format: cell-based
Procedure: (§1) Primary Neuronal Cultures: The substantia nigra or striatal region is dissected from 4 day-old Sprague-Dawley rats and incubated in minimum essential medium (MEM) containing 20 U/ml papain for 2 hours at 37° C. The tissue is then triturated using fire-polished Pasteur pipettes in MEM supplemented with 10% fetal bovine serum, 0.45% glucose, […] insulin, 0.5 mM glutamine, 100 U/ml penicillin, and 100 μg/ml streptomycin. Cells are plated on 18 mm diameter poly-D-lysine-coated glass coverslips (Fisher 12-545-84 18cir-1D) at a density of 75,000 cells per coverslip for immunofluorescence imaging or in 12-well or 6-well tissue culture plates for immunoblotting studies. […]
Cell stimulation, immunoblotting, and immunoprecipitation: Cells or neurons are grown in 6-well or 12-well plates to 80-90% confluence. […] After centrifugation (14,000×g at 4° C. for 15 minutes), the supernatant is collected and the protein concentration is measured and adjusted using RIPA^+ buffer. […] The proteins are transferred to PVDF membrane (Millipore), detected with the primary antibodies (including anti-active ERK; anti-p-Tyr clone 4G10, Upstate; anti-TH; anti-DAT, sigma, anti-β-tubulin, etc.) and visualized with the SuperSignal™ West Pico chemiluminescent kit (Pierce Biotechnology, Rockford, Ill.). The intensity of bands is quantified using ImageQuant™ 5.2 (Amersham). […]

SJL mice with EAE = assay: Axonal damage in SJL mice with EAE, SMI312/SMI32 immunohistochemistry of spinal cord; format: in vivo, mouse
Procedure: A9 (or the vehicle control) was administered orally.
Following treatment, the thoracic spinal cords were fixed in 4% PFA, embodied in paraffin and sectioned for IHC.

ERK [2] = assay: ERK activation in the brain; format: in vivo; conditions: observation, no data shown
[3] = Golomb et al. 1996; cited from earlier work
ERK [4] = assay: ERK phosphorylation in primary rat SNc dopaminergic neurons, p-ERK staining; format: cell-based; conditions: primary rat SNc neuron culture, A9 1 μM, 1 hour
Procedure: Primary cultures of rat embryonic SNc neurons were stimulated with vehicle (NT) or A9 (1 μM) for 1 hour and then stained for tyrosine hydroxylase (TH) and phospho-ERK (p-ERK). Images were digitally captured with an Olympus CX640 fluorescence microscope.
as §1
Cell preparation for microscopy: Neuroblastoma cells and rat striatal neurons are grown on glass coverslips and treated with poly-D-Lysine. […] The samples are examined by an Olympus CX640 fluorescence microscope, or scanned with a Leica TCS SP confocal laser scanning microscope. Images are digitally captured and recorded with computer. […]

Solubility of A9 stock = format: physicochemical
Procedure: 5. Physical properties: A9 stock can be dissolved in ethanol, methylene chloride, or DMSO as high as 25 mg/ml. The stock of A9 can then be diluted in water or saline. The final concentration in saline can reach 10 mg/ml according to our experience. A9 is very stable in organic solvents and keeps its activity (indicated by its ability to stimulate ERK activation in NS20Y cells, data not shown) for 6 months at room temperature. […] In saline, its half-life was reported to be 4 days at 37° C. (Golumb, Atherosclerosis 125:171-182, 1996). […] A similar evaluation of the chemical nature of any tyrphostin can be used to determine if it is of use to induce neurite outgrowth and regeneration in a subject.

ERK [5] = assay: ERK activation in HEK293 cells; format: cell-based, human
Procedure: Cell stimulation, immunoblotting, and immunoprecipitation: Cells or neurons are grown in 6-well or 12-well plates to 80-90% confluence. The cells are starved in serum-free DMEM overnight, and then incubated with receptor agonists at 37° C. for the indicated durations. In some experiments, signaling inhibitors are added 45 minutes before simulation. Incubation is terminated by placing the tissue culture cluster on ice and rapidly aspirating the medium, followed by the addition of ice-cold RIPA^+ buffer (50 mM Tris-HCl, pH 7.5, 150 mM NaCl, 1% NP-40, 0.5% deoxycholate, 0.1% SDS, 1 mM NaVO3, and protease inhibitor (Calbiochem, San Diego, Calif.)) and incubation for 15 minutes with shaking. After centrifugation (14,000×g at 4° C. for 15 minutes), the supernatant is collected and the protein concentration is measured and adjusted using RIPA^+ buffer. […] The proteins are transferred to PVDF membrane (Millipore), detected with the primary antibodies (including anti-active ERK; anti-p-Tyr clone 4G10, Upstate; anti-TH; anti-DAT, sigma, anti-β-tubulin, etc.) and visualized with the SuperSignal™ West Pico chemiluminescent kit (Pierce Biotechnology, Rockford, Ill.). The intensity of bands is quantified using ImageQuant™ 5.2 (Amersham). […]
It was determined that A9 could activate ERK while characterizing the transactivation of receptor tyrosine kinases by the dopamine D2 receptor.

## CC(C)(C)c1cc(C=C(C#N)C#N)cc(C(C)(C)C)c1O [A9, tyrphostin A9]
ERK [1]
  A9-stimulated ERK activation: also observed
SJL mice with EAE; SJL mice with EAE, 1 μg A9 orally
  Damaged axons, SMI32 staining: effectively reduced; also recorded: reduces the presence of damaged axons
SJL mice with EAE; SJL mice, EAE induced with PLP139-151, 1 μg A9 orally
  Axonal damage in the spinal cord: reduced the axonal damage
SJL mice with EAE; after oral administration, inferred from CNS effect in EAE mice
  Ability to cross the blood brain barrier: has the ability to cross the blood brain barrier
ERK [2]
  ERK activation in the brain: can cause ERK activation in the brain
[3]
  Side effects: has not been shown to produce obvious side effects
ERK [4]
  ERK phosphorylation/activation in dopaminergic neurons: induced robust ERK activation
ERK [4]; listed as tyrphostin A9
  ERK phosphorylation/activation in dopaminergic neurons: induced ERK phosphorylation
Solubility of A9 stock; aqueous with cosolvent or surfactant or cyclodextrin, kinetic from dmso stock, stock diluted in saline, read-out: Final concentration in saline
  solubility: ≥ 10 mg/mL
Solubility of A9 stock; organic solvent or mixture, in ethanol, methylene chloride, or DMSO, read-out: Solubility of stock
  solubility: ≤ 25 mg/mL
ERK [5]
  ERK activation: but not in HEK293
ERK [5]; A9 pretreatment
  D2 receptor-induced activation of ERK: prevented D2 receptor-induced activation of ERK

— patent US20090012179A1, “Use of Tyrphostins to Stimulate Neurite Outgrowth” (priority 2004, published 2009)
